Patent US12291607B2, “Polymer material and method for producing same” (Osaka University, priority 2019, dated 2025)

Assay: Solubility of host (Ac-CDAA) and guest (ADAA) monomers in third polymerizable monomers
Format: physicochemical
Description: The phrase “the host group-containing polymerizable monomer and the guest group-containing polymerizable monomer are dissolved in the third polymerizable monomer” means that the mixture of the host group-containing polymerizable monomer and the guest group-containing polymerizable monomer in a total amount of 1 part by weight or more is dissolved per 100 parts by weight of the third polymerizable monomer at a temperature of 20° C. It is preferable that the mixture of the host group-containing polymerizable monomer and the guest group-containing polymerizable monomer in a total amount of 1 part by weight or more, and particularly preferably 10 parts by weight or more, is dissolved per 100 parts by weight of the third polymerizable monomer at a temperature of 20° C.
(§1) The solubility of Ac-CDAA (host group-containing polymerizable monomer) in the following various monomers (third polymerizable monomers) was as follows: • less than 1 g for 100 g of 2EHA (20° C.) • less than 1 g for 100 g of OctA (octyl acrylate) (20° C.) • 10 g or more for 100 g of 2MEA (20° C.) • 10 g or more for 100 g of 4HBA (20° C.) • 10 g or more for 100 g of DMAA (20° C.)
as §1, with “Further, the” for “The”, “ADAA (guest” for “Ac-CDAA (host”, “OctA” for “OctA (octyl acrylate)”

**Q.** For C=CC(=O)NC12CC3CC(CC(C3)C1)C2 [ADAA, N-(1-adamantyl) acrylamide], which “solubility in 2EHA” value (for 100 g of 2EHA (20° C.)) is on record?
**A.** less than 1 g

**Q.** And the “solubility in 2MEA” value (for 100 g of 2MEA (20° C.))?
**A.** ≥ 10 g

**Q.** And the “solubility in 4HBA” value (for 100 g of 4HBA (20° C.))?
**A.** ≥ 10 g

**Q.** What about the “solubility in DMAA” value (for 100 g of DMAA (20° C.)) of the same compound?
**A.** ≥ 10 g

**Q.** What about the “solubility in OctA” value (for 100 g of OctA (octyl acrylate) (20° C.)) of the same compound?
**A.** less than 1 g
